# Experimental data reported in patent US10301304B2, “Selective inhibitor of phosphatidylinositol 3-kinase-gamma” (VERTEX PHARMACEUTICALS INCORPORATED, priority 2013, dated 2019).
# Like-named read-outs stand apart in the source and are kept apart here.
# Tests used:
# PI3K-γ = PI3K-γ (Homo sapiens, UniProt P48736); assay: PI3K Inhibition Assay; type: biochemical
# Method: (§1) Using a Biomek FX from Beckman Coulter, 1.5 μL of each of ten 2.5-fold serial dilutions of the compound of the invention in 100% DMSO was added to an individual well (hereafter, “test well”) in a 96 well polystyrene plate [Corning, Costar Item No. 3697]. One test well also contained 1.5 μL of DMSO with no compound. […] Using a Titertek Multidrop, 50 μL of Reaction Mix [100 mM HEPES pH 7.5, 50 mM NaCl, 10 mM DTT, 0.2 mg/mL BSA, 60 μM phosphatidylinositol(4,5)-bisphosphate diC16 (PI(4,5)P2; Avanti Polar Lipids, Cat. No. 840046P) and PI3K isoform of interest (see Table 1 for isoform concentrations)] was added to each well. To initiate the reaction, 50 μL of ATP Mix [20 mM MgCl2, 6 μM ATP (100 μCi/μmole ^33P-ATP was added to each well, followed by incubating the wells for 30 min. at 25° C. Final concentrations in each well were 50 mM HEPES 7.5, 10 mM MgCl2, 25 mM NaCl, 5 mM DTT, 0.1 mg/mL BSA, 30 μM PI(4,5)P2, 3 μM ATP, and the PI3K isoform of interest (see Table 2). Final compound concentrations in each well ranged from 10 μM to 1 nM.
# (§2) After incubation, the reactions in each well were quenched by addition of 50 μL of stop solution [30% TCA/Water, 10 mM ATP]. Each quenched reaction mixture was then transferred to a 96 well glass fiber filter plate [Corning, Costar Item No. 3511]. The plate was vacuum-filtered and washed three times with 150 μL of 5% TCA/water in a modified Bio-Tek Instruments ELX-405 Auto Plate Washer. 50 μL of scintillation fluid was added to each well and the plate read on a Perkin-Elmer TopCount™ NXT liquid scintillation counter to obtain ^33P-counts representing inhibition values.
# (§3) The value for the background well was subtracted from the value obtained for each test well and the data were fit to the competitive tight binding Ki equation described by Morrison and Stone, Comments Mol. Cell Biophys. 2: 347-368, 1985. […] In addition, isoform selectivity was also seen as Compound 1 was tested against PI3K-alpha, PI3K-beta, and PI3K-delta isoforms and was determined to have a selectivity of greater than 15 fold for PI3K-gamma as shown in Table 2.
# PI3K-β = PI3K-β (Homo sapiens, UniProt P42338); assay: PI3K Inhibition Assay; type: biochemical
# Method: as §1, §2, §3
# PI3K-α = PI3K-α (Homo sapiens, UniProt P42336); assay: PI3K Inhibition Assay; type: biochemical
# Method: as §1, §2, §3
# PI3K-δ = PI3K-δ (Homo sapiens, UniProt O00329); assay: PI3K Inhibition Assay; type: biochemical
# Method: as §1, §2, §3
# [1] = Oral pharmacokinetics / bioavailability; type: in vivo, Rat
# Text: The bioavailability in monkey (greater than 100%) may be explained by the tenfold difference between the IV and oral doses. Compound 1 was rapidly absorbed in all species, with maximum systemic concentration observed within approximately one to three hours of dosing.
# [2] = Tissue drug concentrations in CD40-induced IBD model; type: in vivo, mouse; conditions: 7 days, 2 h after last dose; for Kp at 2 h / concentration at 2 h: Rag1 knock-out (Rag 1−/−), mouse, intraperitoneal; for Kp at 2 h: colon (relative to plasma); for concentration at 2 h: plasma
# Method: The PI3Kγ inhibitor, Compound 1, was tested in a CD40 induced colitis model to determine its effect on disease course. The CD40 model of IBD is induced by injecting an anti-CD40 monoclonal antibody (agonist, i.e., activating antibody versus neutralizing antibody) into T and B cell deficient mice (Rag 1−/− mice) to induce both systemic and intestinal inflammation that leads to colitis and wasting disease via the innate immune pathway. (See, e.g., Immunity 25, 309-318, August 2006). Briefly, Rag1 knock-out mice were injected IP with the anti-CD40 monoclonal antibody FGK45. Starting on Day 0, mice were treated with PBS, vehicle or Compound 1 at 5 mg/kg b.i.d. or 10 mg/kg b.i.d. Compound 1 was administered IP for 7 days on a 10/14-hour b.i.d. dosing regimen. Compound 1 was formulated in 5% NMP/15% PEG-400/80% in a 0.5% HPMC-E50 solution in water. At study termination, serum and colon samples were collected at 2 hours following the last dose for drug concentration analysis. Body weights were measured daily during the study. Compound 1 concentrations were analyzed in the plasma samples collected 2 hours following the final dose at study termination. Concentrations were determined using a high performance liquid chromatography/tandem mass spectrometry (HPLC/MS/MS) method.
# CYP3A4 = CYP3A4 (Homo sapiens, UniProt P08684); assay: Inhibition of CYP Enzymes in Human Liver Microsomes; type: in vitro ADME; parameters: evaluated in human liver microsomes using the IC50 shift assay; from tissue; host or cells: human liver microsomes
# Method: Inhibition assays were conducted with selective CYP probes for each CYP enzyme at specific concentrations of substrate (close to its dissociation constant (Km) value). Compound 1 was a moderate inhibitor of CYP 1A2, 2B6 and 2C8; […]
# MCF7 cells = assay: MCF-7 Proliferation Assay; type: cell-based, human; conditions: for IC50: Homo sapiens
# Method: The PI3K-Akt signaling pathway regulates many normal cellular processes including cell proliferation, survival and growth that are critical for tumorigenesis. Dysregulation of the PI3K signaling pathway occurs commonly in human cancers. MCF7 is a human breast carcinoma cell line that has an activating E545K PI3Kα heterozygous mutation in the helical domain of the p110α protein leading to hyperactivity of the PI3K-alpha pathway. […] Compounds are added to MCF7 cells, cell proliferation/viability is measured 96 hours post compound treatment using cell titer-glo to measure the ATP content of the cells in the well. Lack of or reduced proliferation is a measure of the extent of PI3K-alpha inhibition.
# [3] = in vivo, Rat, single oral, 1 mg/kg nominal, spray-dried dispersion
# PI3K-δ, sequence (O00329 whole entry, species assumed): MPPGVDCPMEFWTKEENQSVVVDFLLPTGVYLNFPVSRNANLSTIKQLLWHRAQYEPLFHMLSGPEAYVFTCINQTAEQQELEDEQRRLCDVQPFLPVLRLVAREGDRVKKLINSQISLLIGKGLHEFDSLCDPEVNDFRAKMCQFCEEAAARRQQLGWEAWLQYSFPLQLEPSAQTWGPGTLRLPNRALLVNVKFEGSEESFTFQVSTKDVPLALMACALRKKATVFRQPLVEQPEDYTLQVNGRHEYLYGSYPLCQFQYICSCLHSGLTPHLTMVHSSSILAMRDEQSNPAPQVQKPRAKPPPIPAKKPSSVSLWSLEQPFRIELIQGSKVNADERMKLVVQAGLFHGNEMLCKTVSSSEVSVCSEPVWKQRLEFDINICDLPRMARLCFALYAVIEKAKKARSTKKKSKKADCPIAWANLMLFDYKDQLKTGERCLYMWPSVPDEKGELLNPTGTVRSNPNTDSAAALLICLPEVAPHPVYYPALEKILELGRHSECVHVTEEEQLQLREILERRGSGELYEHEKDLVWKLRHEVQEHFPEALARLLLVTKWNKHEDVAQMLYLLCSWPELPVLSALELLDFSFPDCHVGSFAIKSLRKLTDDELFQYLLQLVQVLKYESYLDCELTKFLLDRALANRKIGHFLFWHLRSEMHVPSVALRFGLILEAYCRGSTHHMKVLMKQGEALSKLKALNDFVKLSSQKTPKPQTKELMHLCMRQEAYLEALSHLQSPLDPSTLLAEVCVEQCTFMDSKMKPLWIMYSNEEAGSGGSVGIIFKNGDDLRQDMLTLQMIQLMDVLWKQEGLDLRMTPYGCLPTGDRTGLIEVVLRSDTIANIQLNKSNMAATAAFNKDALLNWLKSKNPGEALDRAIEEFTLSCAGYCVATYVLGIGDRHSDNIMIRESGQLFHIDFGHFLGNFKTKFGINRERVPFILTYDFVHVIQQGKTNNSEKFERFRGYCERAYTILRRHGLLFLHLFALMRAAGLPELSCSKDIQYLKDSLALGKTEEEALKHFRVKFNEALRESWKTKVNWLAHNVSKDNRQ
# PI3K-δ, sequence (P27986 whole entry partner, species assumed): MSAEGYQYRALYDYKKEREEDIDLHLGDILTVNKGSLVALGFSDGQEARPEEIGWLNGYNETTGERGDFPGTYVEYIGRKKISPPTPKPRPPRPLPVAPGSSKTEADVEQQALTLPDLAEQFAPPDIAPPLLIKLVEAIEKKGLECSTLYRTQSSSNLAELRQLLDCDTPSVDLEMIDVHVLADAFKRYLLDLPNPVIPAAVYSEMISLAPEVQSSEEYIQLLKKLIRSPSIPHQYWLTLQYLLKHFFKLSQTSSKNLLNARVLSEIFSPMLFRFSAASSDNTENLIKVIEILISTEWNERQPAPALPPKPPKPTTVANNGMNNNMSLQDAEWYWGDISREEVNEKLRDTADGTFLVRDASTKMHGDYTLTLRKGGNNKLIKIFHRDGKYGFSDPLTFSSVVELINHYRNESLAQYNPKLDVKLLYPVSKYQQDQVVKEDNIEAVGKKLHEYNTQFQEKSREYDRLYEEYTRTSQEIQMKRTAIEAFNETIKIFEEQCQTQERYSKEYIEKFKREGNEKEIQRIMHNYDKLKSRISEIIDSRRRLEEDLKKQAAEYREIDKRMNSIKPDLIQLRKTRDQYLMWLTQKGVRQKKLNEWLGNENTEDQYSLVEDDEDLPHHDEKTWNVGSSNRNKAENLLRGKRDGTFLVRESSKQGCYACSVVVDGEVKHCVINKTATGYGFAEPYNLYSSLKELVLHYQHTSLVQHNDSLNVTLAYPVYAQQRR
# PI3K-γ, sequence (P48736 whole entry, species assumed, canonical isoform): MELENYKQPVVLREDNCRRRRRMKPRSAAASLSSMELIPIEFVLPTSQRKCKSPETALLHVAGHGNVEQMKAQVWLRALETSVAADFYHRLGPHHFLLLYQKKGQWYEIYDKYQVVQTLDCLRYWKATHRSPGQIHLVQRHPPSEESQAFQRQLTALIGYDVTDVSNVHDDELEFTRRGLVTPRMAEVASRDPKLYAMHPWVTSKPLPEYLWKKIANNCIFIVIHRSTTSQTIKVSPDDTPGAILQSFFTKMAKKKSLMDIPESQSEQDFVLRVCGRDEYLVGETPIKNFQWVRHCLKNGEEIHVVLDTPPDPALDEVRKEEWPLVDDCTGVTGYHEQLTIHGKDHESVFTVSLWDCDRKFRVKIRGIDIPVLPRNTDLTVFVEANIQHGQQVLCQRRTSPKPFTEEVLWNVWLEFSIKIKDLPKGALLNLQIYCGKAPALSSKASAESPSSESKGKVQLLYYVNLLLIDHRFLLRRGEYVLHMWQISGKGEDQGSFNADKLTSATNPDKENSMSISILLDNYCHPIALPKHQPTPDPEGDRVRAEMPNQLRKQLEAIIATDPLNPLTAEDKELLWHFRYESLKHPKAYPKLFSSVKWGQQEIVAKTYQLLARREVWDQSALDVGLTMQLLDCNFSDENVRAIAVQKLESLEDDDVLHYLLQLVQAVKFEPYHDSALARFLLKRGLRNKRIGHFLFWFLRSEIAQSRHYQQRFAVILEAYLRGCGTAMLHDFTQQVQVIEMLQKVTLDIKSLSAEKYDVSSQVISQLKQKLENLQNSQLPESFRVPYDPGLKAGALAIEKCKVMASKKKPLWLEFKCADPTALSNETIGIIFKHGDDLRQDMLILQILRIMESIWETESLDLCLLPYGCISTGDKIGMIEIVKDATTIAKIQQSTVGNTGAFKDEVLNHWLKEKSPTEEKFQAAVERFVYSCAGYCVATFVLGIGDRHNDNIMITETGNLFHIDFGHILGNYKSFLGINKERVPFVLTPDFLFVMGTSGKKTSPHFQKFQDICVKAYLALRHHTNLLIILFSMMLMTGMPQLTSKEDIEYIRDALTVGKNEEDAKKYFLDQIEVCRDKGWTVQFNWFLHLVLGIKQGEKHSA
# CYP3A4, sequence (P08684 whole entry): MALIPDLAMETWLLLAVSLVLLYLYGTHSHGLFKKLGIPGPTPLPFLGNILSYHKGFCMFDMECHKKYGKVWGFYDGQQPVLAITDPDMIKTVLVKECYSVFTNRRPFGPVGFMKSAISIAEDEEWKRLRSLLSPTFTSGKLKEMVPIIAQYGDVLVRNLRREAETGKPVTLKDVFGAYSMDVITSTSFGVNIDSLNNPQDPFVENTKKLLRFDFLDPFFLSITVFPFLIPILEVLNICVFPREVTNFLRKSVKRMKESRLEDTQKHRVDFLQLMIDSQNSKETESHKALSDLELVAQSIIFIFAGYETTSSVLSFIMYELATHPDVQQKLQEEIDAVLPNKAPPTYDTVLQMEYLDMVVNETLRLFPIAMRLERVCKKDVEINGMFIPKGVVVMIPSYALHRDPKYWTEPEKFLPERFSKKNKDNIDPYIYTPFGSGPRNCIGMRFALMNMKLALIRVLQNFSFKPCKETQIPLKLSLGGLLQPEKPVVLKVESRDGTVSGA
# PI3K-β, sequence (P42338 whole entry, species assumed): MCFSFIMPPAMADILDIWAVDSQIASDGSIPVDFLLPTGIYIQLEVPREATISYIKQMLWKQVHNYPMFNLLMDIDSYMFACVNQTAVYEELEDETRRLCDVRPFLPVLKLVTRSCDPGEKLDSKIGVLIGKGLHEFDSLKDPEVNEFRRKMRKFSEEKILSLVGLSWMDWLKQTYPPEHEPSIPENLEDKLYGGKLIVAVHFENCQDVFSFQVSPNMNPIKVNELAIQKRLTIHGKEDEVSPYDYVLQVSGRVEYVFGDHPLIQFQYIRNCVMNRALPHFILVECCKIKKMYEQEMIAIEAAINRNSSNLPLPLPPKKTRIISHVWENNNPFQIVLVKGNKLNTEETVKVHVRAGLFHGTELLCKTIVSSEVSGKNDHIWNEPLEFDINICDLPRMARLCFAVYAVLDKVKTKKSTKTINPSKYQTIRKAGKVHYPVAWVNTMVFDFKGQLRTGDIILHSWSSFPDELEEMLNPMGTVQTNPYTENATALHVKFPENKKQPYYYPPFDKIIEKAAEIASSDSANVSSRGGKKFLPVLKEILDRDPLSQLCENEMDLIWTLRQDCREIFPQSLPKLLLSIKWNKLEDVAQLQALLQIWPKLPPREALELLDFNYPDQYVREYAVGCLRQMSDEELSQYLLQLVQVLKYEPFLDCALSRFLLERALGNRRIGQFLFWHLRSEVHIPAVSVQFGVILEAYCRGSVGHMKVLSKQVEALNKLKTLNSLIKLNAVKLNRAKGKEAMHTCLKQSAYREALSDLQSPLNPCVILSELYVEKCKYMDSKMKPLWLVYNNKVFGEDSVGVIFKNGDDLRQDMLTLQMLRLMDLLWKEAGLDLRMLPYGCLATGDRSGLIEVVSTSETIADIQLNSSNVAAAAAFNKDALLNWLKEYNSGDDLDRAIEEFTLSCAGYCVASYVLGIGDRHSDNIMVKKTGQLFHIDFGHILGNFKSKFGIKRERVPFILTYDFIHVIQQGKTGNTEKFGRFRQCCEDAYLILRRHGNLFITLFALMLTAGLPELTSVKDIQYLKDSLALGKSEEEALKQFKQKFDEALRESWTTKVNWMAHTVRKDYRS
# PI3K-β, sequence (P27986 whole entry partner, species assumed): as the sequence (P27986 whole entry partner, species assumed) above
smiles,measurement,setting,value
"Cc1cc(-c2cncc([C@@H](O)C(F)(F)F)c2)nc2c1C(=O)N(c1cnn(CC(F)F)c1)C2(C)C [Compound 1, (R)-6-(1-(2,2-difluoroethyl)-1H-pyrazol-4-yl)-4,7,7-trimethyl-2-(5-(2,2,2-trifluoro-1-hydroxyethyl)pyridin-3-yl)-6,7-dihydro-5H-pyrrolo[3,4-b]pyridin-5-one]",Ki,"PI3K-γ; PI3K-gamma, ATP-competitive",8 nM
same,selectivity for PI3K-gamma,"PI3K-γ; against PI3K-alpha, PI3K-beta and PI3K-delta isoforms",greater than 15 fold
same,Ki,PI3K-β; PI3Kβ,220 ± 30 nM
same,Fold Selectivity,PI3K-β; PI3Kγ over PI3Kβ,26 fold
same,Ki,PI3K-α; PI3Kα,280 ± 90 nM
same,Fold Selectivity,PI3K-α; PI3Kγ over PI3Kα,30 fold
same,Fold Selectivity,PI3K-δ; PI3Kγ over PI3Kδ,19 fold
same,Ki,PI3K-δ; PI3Kδ,160 ± 50 nM
same,DN_AUCINF,"[1]; Rat, single oral, 1 mg/kg nominal, spray-dried dispersion",5140 ng·h/mL
same,F,"[1]; Rat, single oral, 1 mg/kg nominal, spray-dried dispersion, 1 mg/kg",84%
same,AUC(0-inf),[1]; [3],5110 ng·h/mL
same,MRT,[1]; [3],18.3 h
same,Tmax,[1]; [3],3.33 h
same,half-life,[1]; [3],12.5 h
same,AUC,"[1]; in vivo, Rat, single oral, 1 mg/kg nominal, spray-dried dispersion, read-out: AUCALL",5000 ng·h/mL
same,Cmax,"[1]; in vivo, Rat, single oral, 1 mg/kg nominal, spray-dried dispersion, read-out: Cmax",260 ng/mL
same,AUC,"[1]; rat, in vivo, Oral gavage, 3 mg/kg nominal dose, vehicle 0.2%MC/1%SLS, read-out: Rat PO AUC",18000 ng·h/mL
same,Cmax,"[1]; rat, in vivo, Oral gavage, 3 mg/kg nominal dose, vehicle 0.2%MC/1%SLS, read-out: Rat PO Cmax",1000 ng/mL
same,"2 h Tissue Drug Concentration, Colon",[2]; 5 mg/kg b.i.d. IP,6110 ± 6350 ng/g
same,"2 h Tissue Drug Concentration, Colon",[2]; 10 mg/kg b.i.d. IP,7480 ± 9700 ng/g
same,Kp at 2 h,[2]; 5 mg/kg b.i.d. IP,1.5
same,Kp at 2 h,[2]; 10 mg/kg b.i.d. IP,1.2
same,concentration at 2 h,[2]; 5 mg/kg b.i.d. IP,4020 ± 4520 ng/mL
same,concentration at 2 h,[2]; 10 mg/kg b.i.d. IP,6220 ± 6190 ng/mL
same,IC50,"CYP3A4; CYP3A4, 2.5 μM Midazolam",19000 nM
same,IC50,"CYP3A4; CYP3A4, 50 μM Testosterone",> 75000 nM
same,IC50,"MCF7 cells; MCF7, 96 h, MCF7 Proliferation, 96 hours, PI3K-alpha dependent, read-out: IC50 Avg +/− SD",> 17000 nM
same,IC50,"MCF7 cells; MCF7, MCF7 Proliferation, footnote **, read-out: Individual assay data (IC50)",15700 nM
same,selectivity over PI3K-alpha,MCF7 cells; MCF7 proliferation,> 67 fold
